Reference: patent US9662461B2, “Dry powder drug delivery system and methods” (MannKind Corporation, priority 2008, dated 2017)

Assays:
[1] = VMGD and container emptying by laser diffraction, DPI 2 vs predicate inhaler (Example 6); type: physicochemical; details: 56% trans, SSA 55, 4 kPa
Source text: Laser diffraction of dry powder formulations emitted from dry powder inhalers is a common methodology employed to characterize the level of de-agglomeration subjected to a powder. The methodology indicates a measure of geometric size rather than aerodynamic size as occurring in industry standard impaction methodologies. Typically, the geometric size of the emitted powder includes a volumetric distribution characterized by the median particle size, VMGD. Importantly, geometric sizes of the emitted particles are discerned with heightened resolution as compared to the aerodynamic sizes provided by impaction methods. Smaller sizes are preferred and result in greater likelihood of individual particles being delivered to the pulmonary tract. Thus, differences in inhaler de-agglomeration and ultimate performance can be easier to resolve with diffraction. In these experiments, an inhaler as specified in Example 3 and a predicate inhaler are tested with laser diffraction at pressures analogous to actual patient inspiratory capacities to determine the effectiveness of the inhalation system to de-agglomerate powder formulations. […] Reported in Table 5 are a VMGD and an efficiency of the container emptying during the testing.

[2] = In vitro powder performance DPI 2 vs MEDTONE delivery system (Example 7); type: physicochemical; details: 4 kPa
Source text: In vitro powder performance for these systems was compared for various parameter of inhaler performance. For DPI 2 a single discharge per cartridge was used as compared to two discharges per cartridge in the MEDTONE® system.
Particle sizing by laser diffraction and quantification of emitted mass as described above were used in these experiments. A laser diffraction instrument (Sympatec HELOS) was adapted with a novel pressurized inhaler chamber to facilitate analysis of powder plumes. MTDS cartridges were discharged twice per determination versus once with DPI 2.

[3] = Pharmacokinetics of FDKP inhaled as FDKP inhalation powder (Example 8); type: in vivo, healthy volunteers; details: for AVG mean AUC fdkp per emitted fdkp mass: n=10
Method: The MEDTONE® inhaler system was used for comparison.
To generate a “hard” inhalation, the subject provided a nominal inhalation time of about 6.5 seconds and a peak pressure of 7 kPa. Conversely, to generate an “easy” inhalation, the subject provided a nominal inhalation time of about 6.5 seconds and a peak pressure of 5 kPa. Coupled with the inhalation monitoring apparatus, gravimetric assessment of the powder mass discharged from the cartridge was performed. This enabled a linkage between inhalation maneuver during dosing, cartridge discharge mass and pharmacokinetic profile determinations for each subject.
The study was an open-label, crossover, 2-part study in healthy volunteers.
Part 2 was carried out as a 2-part, 2-way crossover study for evaluating the effect of flow rate (15 versus 30 LPM) and inhalation time (3 versus 6 seconds). For each parameter tested (i.e., flow rate, and inhalation time), ten subjects were crossed over for each parameter with 20 subjects total for all of the parameters. Pharmacokinetics of FDPK was assessed with each treatment from blood samples taken from the subjects.

[4] = DPI 2, 10 mg fill, single discharge, n=15
[5] = MEDTONE (MTDS), 10 mg fill FDKP, two discharges, n=30

O=C(O)/C=C/C(=O)NCCCCC1NC(=O)C(CCCCNC(=O)/C=C/C(=O)O)NC1=O (stereo not shown) [FDKP, 3,6-bis(N-fumaryl-4-aminobutyl)-2,5-diketopiperazine]
VMGD [1]: 6.800 micron | Ave. Geometric SD [2, 4]: 3.79 μm | Ave. VMGD [2, 4]: 6.84 μm | Ave. Geometric SD [2, 5]: 2.94 μm | Ave. VMGD [2, 5]: 21.21 μm | delivery of FDKP into the systemic circulation, DPI 1 better than MEDTONE ([3]; DPI 1 vs MEDTONE inhaler): about 30% | increase in FDKP plasma AUC, DPI 1 over MEDTONE ([3]; FDKP 10 mg): ~2 fold | AVG mean AUC fdkp per emitted fdkp mass ([3]; Part 1, DPI 1, cartridge 10 mg fdkp): 3495 ng * min/mL * mg fdkp | AVG mean AUC fdkp per emitted fdkp mass ([3]; Part 1, MT (MEDTONE), two inhalations, cartridge 10 mg fdkp): 1934 ng * min/mL * mg fdkp | AVG mean AUC fdkp per emitted fdkp mass ([3]; Part 2, DPI 1, 10 mg, long inhalation time): 3289 ng * min/mL * mg fdkp | AVG mean AUC fdkp per emitted fdkp mass ([3]; Part 2, DPI 1, 10 mg, short inhalation time): 3310 ng * min/mL * mg fdkp | AVG mean AUC fdkp per emitted fdkp mass ([3]; Part 3, DPI 1, 10 mg, easy inhalation effort): 3925 ng * min/mL * mg fdkp | AVG mean AUC fdkp per emitted fdkp mass ([3]; Part 3, DPI 1, 10 mg, hard inhalation effort): 3867 ng * min/mL * mg fdkp
